Experimental findings from US4031211A, “Adriamycin esters, their preparation and use” (priority 1975, dated 1977) are described below.

One series relates to Ascites sarcoma 180. In words: Antitumor effect on ascites sarcoma 180 in mice. The settings on record: for LTS / TC: Table 5, ip, day 1. Here is the method:
(§1) The compounds according to the invention were tested on several in vitro systems and experimental mouse tumors, in comparison with adriamycin.

The next series has as its system L 1210 leukemia. The series can be described thus: Antitumor effect on L 1210 leukemia in mice. The settings on record: Table 5, ip, day 1. As for the experimental part: as §1
Another series relates to Gross leukemia. In words: Antitumor effect on Gross leukemia in mice. As for the experimental part:
as §1

Another series relates to Moloney sarcoma virus. In words: Inhibition of Moloney sarcoma virus-induced foci in mouse embryo fibroblasts. It counts as cell-based. The settings on record: text on Table 6, in vitro. As for the experimental part:
^2 Inhibition of Moloney sarcoma virus-induced foci in mouse embryo
fibroblasts proliferation (treatment per 72 hours)

Series [1] concerns experimental mouse tumors. In words: Antitumor/therapeutic activity and toxicity in experimental mouse tumors, overall statements. In kind it is in vivo.
[2] abbreviates: Table 5, first experiment, iv, days 1,2,3, 6 mg./kg.

Consider `CCCCCCCCCCCC(=O)OCC(=O)OCC(=O)C1(O)Cc2c(O)c3c(c(O)c2C(OC2CC(N)C(O)C(C)O2)C1)C(=O)c1c(OC)cccc1C3=O.Cl` (stereo not shown) [adriamycin-14-0-lauroyl glycolate, Adriamycin-14-0-Lauroyl Glycolate Hydrochloride], for which the “number of long term survivors compared with adriamycin” value in the series on Ascites sarcoma 180 is recorded as “higher number of long term survivors”. The LTS is 4/10 in the series on Ascites sarcoma 180 (2 mg./kg.), 8/10 with Ascites sarcoma 180 (4 mg./kg.), 1/10 with L 1210 leukemia (16 mg./kg.) and 2/10 with Gross leukemia (setting [2]). The TC with Ascites sarcoma 180 (2 mg./kg.) turned out to be 436%; with Ascites sarcoma 180 (4 mg./kg.) it was 493%; in the series on Ascites sarcoma 180 (8 mg./kg.), 385%; in the series with Ascites sarcoma 180 (16 mg./kg.) it was 242%; in the series on L 1210 leukemia (2 mg./kg.) it was 135%; in the series on L 1210 leukemia (4 mg./kg.), 141%. Also, the TC in the series with L 1210 leukemia (8 mg./kg.) turned out to be 165%; with L 1210 leukemia (16 mg./kg.), 200%; in the series with Gross leukemia (Table 5, first experiment, iv, days 1,2,3, 4.5 mg./kg.), 136%; in the series with Gross leukemia (setting [2]), 257%; with Gross leukemia (Table 5, first experiment, iv, days 1,2,3, 7.5 mg./kg.) it was 221%; in the series on Gross leukemia (Table 5, first experiment, iv, days 1,2,3, 9 mg./kg.), 128%. The TC in the series on Gross leukemia (Table 5, second experiment, iv, days 1,2,3, 6 mg./kg.) turned out to be 193%; in the series with Gross leukemia (Table 5, second experiment, iv, days 1,2,3, 7.5 mg./kg.), 214%. In the series with Gross leukemia, the “increase of the median survival time compared with adriamycin” value is “higher increase of the median survival time than does adriamycin”. Further, the “activity on Moloney Sarcoma Virus” value with Moloney sarcoma virus was “most active among all of them”. Further, the “toxicity compared with adriamycin” value in series [1] was “less toxic than adriamycin”.
